Reference: PubChem BioAssay AID328 (DTP/NCI, 2004)
Where “and” joins values, the source holds several entries; their conditions need not be identical. Equal entries are not always repeated. Inconclusive results and toxic doses are left out.

Test system: BDF1 mice, P388 leukemia ip, median survival T/C
Assay: NCI In Vivo Anticancer Drug Screen. Data for tumor model P388 Leukemia (intraperitoneal) in B6D2F1 (BDF1) mice
Conditions: endpoint: median survival time, higher = longer survival
Summary of the method: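 Survival ratio, drug arm over vehicle arm, in mice with a transplanted tumour.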

[1] = dose: 100.0 mg/kg/injection, schedule: Q01DX009 (ip), vehicle: saline
[2] = dose: 100.0 mg/kg/injection, schedule: Q04DX002 (ip), vehicle: saline with Tween-80
[3] = dose: 25.0 mg/kg/injection, schedule: Q01DX009 (ip), vehicle: saline
[4] = dose: 50.0 mg/kg/injection, schedule: Q01DX009 (ip), vehicle: saline
[5] = dose: 100.0 mg/kg/injection, schedule: Q01DX009 (ip), vehicle: Klucel (hydroxypropylcellulose) (HPC)
[6] = dose: 100.0 mg/kg/injection, schedule: Q04DX003 (ip), vehicle: Klucel (hydroxypropylcellulose) (HPC)
[7] = dose: 200.0 mg/kg/injection, schedule: Q04DX003 (ip), vehicle: Klucel (hydroxypropylcellulose) (HPC)
[8] = dose: 100.0 mg/kg/injection, schedule: Q04DX003 (ip), vehicle: water
[9] = dose: 200.0 mg/kg/injection, schedule: Q04DX003 (ip), vehicle: water
[10] = dose: 50.0 mg/kg/injection, schedule: Q01DX009 (ip), vehicle: Klucel (hydroxypropylcellulose) (HPC)
[11] = dose: 200.0 mg/kg/injection, schedule: Q04DX002 (ip), vehicle: saline with Tween-80
[12] = dose: 400.0 mg/kg/injection, schedule: Q04DX002 (ip), vehicle: saline with Tween-80
[13] = dose: 100.0 mg/kg/injection, schedule: Q04DX003 (ip), vehicle: saline with Tween-80
[14] = dose: 200.0 mg/kg/injection, schedule: Q04DX003 (ip), vehicle: saline with Tween-80
[15] = dose: 400.0 mg/kg/injection, schedule: Q04DX003 (ip), vehicle: saline with Tween-80

COC(CN(C)CC(OC)OC)OC
T/C [1]: 90 % of control | T/C (dose: 200.0 mg/kg/injection, schedule: Q01DX009 (ip), vehicle: saline): 100 % of control | T/C (dose: 400.0 mg/kg/injection, schedule: Q01DX009 (ip), vehicle: saline): 100 % of control

CCN(CC)CC(O)CNC(=O)c1c2nc3c(C(=O)NCC(O)CN(CC)CC)ccc(C)c3oc-2c(C)c(=O)c1N (stereo not drawn)
T/C (dose: 50.0 mg/kg/injection, schedule: Q04DX002 (ip), vehicle: saline with Tween-80): 110 % of control | T/C [2]: 106 % of control and 120 % of control

CC(C)(C)S(=O)(=O)CC(=O)Nc1ccccc1
T/C (dose: 100.0 mg/kg/injection, schedule: Q01DX001 (ip), vehicle: saline with Tween-80): 96 % of control | T/C (dose: 200.0 mg/kg/injection, schedule: Q01DX001 (ip), vehicle: saline with Tween-80): 101 % of control | T/C (dose: 400.0 mg/kg/injection, schedule: Q01DX001 (ip), vehicle: saline with Tween-80): 96 % of control

CCN1CC=CCC1
T/C [3]: 95 % of control | T/C (dose: 25.0 mg/kg/injection, schedule: Q04DX003 (ip), vehicle: saline): 95 % of control and 104 % of control and 118 % of control | T/C (dose: 35.0 mg/kg/injection, schedule: Q04DX003 (ip), vehicle: saline): 109 % of control | T/C [4]: 100 % of control | T/C (dose: 75.0 mg/kg/injection, schedule: Q04DX003 (ip), vehicle: saline): 86 % of control | T/C [1]: 116 % of control | T/C (dose: 100.0 mg/kg/injection, schedule: Q04DX003 (ip), vehicle: saline): 109 % of control

O=Cc1cn[nH]c1-c1ccccc1
T/C [5]: 92 % of control | T/C [6]: 87 % of control | T/C (dose: 200.0 mg/kg/injection, schedule: Q01DX009 (ip), vehicle: Klucel (hydroxypropylcellulose) (HPC)): 88 % of control | T/C [7]: 87 % of control

NC(CCC(=O)c1ccccn1)C(=O)O (stereo not drawn)
T/C (dose: 12.5 mg/kg/injection, schedule: Q01DX009 (ip), vehicle: saline): 103 % of control | T/C [3]: 117 % of control | T/C [4]: 98 % of control | T/C [1]: 117 % of control

O=C(CCNC(=O)OCc1ccccc1)NC(CSCc1ccccc1)C(=O)O (stereo not drawn)
T/C (dose: 12.5 mg/kg/injection, schedule: Q04DX003 (ip), vehicle: water): 112 % of control | T/C (dose: 25.0 mg/kg/injection, schedule: Q04DX003 (ip), vehicle: water): 118 % of control | T/C (dose: 50.0 mg/kg/injection, schedule: Q04DX003 (ip), vehicle: water): 114 % of control | T/C [8]: 105 % of control | T/C [9]: 103 % of control

C1CC[N-]CC1.C1CC[N-]CC1.[I][Pt+2][I]
T/C [10]: 93 % of control | T/C [5]: 93 % of control

COc1ccc2c(c1)CC[C@@H]1[C@@H]2CC[C@@]2(C)[C@H]1CC[C@@]2(O)C(F)=C(F)F
T/C (dose: 50.0 mg/kg/injection, schedule: Q01DX009 (ip), vehicle: saline with Tween-80): 118 % of control | T/C (dose: 100.0 mg/kg/injection, schedule: Q01DX009 (ip), vehicle: saline with Tween-80): 113 % of control | T/C (dose: 200.0 mg/kg/injection, schedule: Q01DX009 (ip), vehicle: saline with Tween-80): 104 % of control

CC1=C(O)/C(=C/C(C)CCC/C(C)=C/CC/C(C)=C/CCc2ccoc2)OC1=O (stereo not drawn)
T/C (dose: 0.31 mg/kg/injection, schedule: Q01DX009 (ip), vehicle: saline with Tween-80): 100 % of control | T/C (dose: 0.62 mg/kg/injection, schedule: Q01DX009 (ip), vehicle: saline with Tween-80): 104 % of control | T/C (dose: 2.5 mg/kg/injection, schedule: Q01DX009 (ip), vehicle: saline with Tween-80): 98 % of control | T/C (dose: 5.0 mg/kg/injection, schedule: Q01DX009 (ip), vehicle: saline with Tween-80): 90 % of control

CC(=O)Nc1cccc(N(CCOS(C)(=O)=O)CCOS(C)(=O)=O)c1
T/C (dose: 13.0 mg/kg/injection, schedule: Q04DX003 (ip), vehicle: saline sonified): 95 % of control | T/C (dose: 20.0 mg/kg/injection, schedule: Q04DX003 (ip), vehicle: saline sonified): 95 % of control | T/C (dose: 30.0 mg/kg/injection, schedule: Q04DX003 (ip), vehicle: saline sonified): 100 % of control

CCNC(C)(C)C(SS(=O)(=O)O)c1cccs1 (stereo not drawn)
T/C (dose: 100.0 mg/kg/injection, schedule: Q01DX009 (ip), vehicle: water): 121 % of control | T/C [8]: 102 % of control | T/C (dose: 200.0 mg/kg/injection, schedule: Q01DX009 (ip), vehicle: water): 121 % of control | T/C [9]: 111 % of control | T/C (dose: 400.0 mg/kg/injection, schedule: Q04DX003 (ip), vehicle: water): 93 % of control

CCC1CC2CCC(c3cc4c(cc3OC)N(C)C3C(O)(C(=O)OC)C(OC(C)=O)C5(CC)C=CCN6CCC43C65)c3[nH]c4ccccc4c3CCN(C1)C2 (stereo not drawn)
T/C (dose: 0.03 mg/kg/injection, schedule: Q01DX010 (ip), vehicle: saline): 90 % of control | T/C (dose: 0.06 mg/kg/injection, schedule: Q01DX010 (ip), vehicle: saline): 100 % of control | T/C (dose: 0.13 mg/kg/injection, schedule: Q01DX010 (ip), vehicle: saline): 90 % of control | T/C (dose: 0.25 mg/kg/injection, schedule: Q01DX010 (ip), vehicle: saline): 100 % of control | T/C (dose: 0.5 mg/kg/injection, schedule: Q01DX010 (ip), vehicle: saline): 95 % of control

CN(C)CCNC(=O)Cc1cc(O)c2c(c1O)C(=O)c1ccccc1C2=O
T/C (dose: 50.0 mg/kg/injection, schedule: Q01DX005 (ip), vehicle: saline): 105 % of control | T/C (dose: 100.0 mg/kg/injection, schedule: Q01DX005 (ip), vehicle: saline): 118 % of control

Cc1ccc(C(=Nc2ccccc2)c2ccccc2C)cc1
T/C [2]: 88 % of control and 100 % of control | T/C [11]: 91 % of control | T/C [12]: 86 % of control

O=C1C=CC(=O)N1c1ccc(Cl)cc1
T/C (dose: 1.25 mg/kg/injection, schedule: Q04DX003 (ip), vehicle: Klucel (hydroxypropylcellulose) (HPC)): 114 % of control | T/C (dose: 2.5 mg/kg/injection, schedule: Q01DX009 (ip), vehicle: Klucel (hydroxypropylcellulose) (HPC)): 159 % of control | T/C (dose: 2.5 mg/kg/injection, schedule: Q04DX003 (ip), vehicle: Klucel (hydroxypropylcellulose) (HPC)): 122 % of control | T/C (dose: 5.0 mg/kg/injection, schedule: Q04DX003 (ip), vehicle: Klucel (hydroxypropylcellulose) (HPC)): 108 % of control | T/C (dose: 10.0 mg/kg/injection, schedule: Q04DX003 (ip), vehicle: Klucel (hydroxypropylcellulose) (HPC)): 107 % of control | T/C (dose: 20.0 mg/kg/injection, schedule: Q01DX009 (ip), vehicle: Klucel (hydroxypropylcellulose) (HPC)): 115 % of control

C[C@]12C=CC(=O)C=C1[C@@H](F)C[C@@H]1[C@@H]2[C@@H](O)C[C@@]2(C)[C@H]1CC[C@]2(O)C(=O)CO
T/C (dose: 25.0 mg/kg/injection, schedule: Q01DX009 (ip), vehicle: Klucel (hydroxypropylcellulose) (HPC)): 104 % of control | T/C [10]: 96 % of control | T/C [5]: 91 % of control and 108 % of control | T/C [6]: 100 % of control | T/C [7]: 104 % of control | T/C (dose: 400.0 mg/kg/injection, schedule: Q04DX003 (ip), vehicle: Klucel (hydroxypropylcellulose) (HPC)): 95 % of control

c1ccc2c(c1)ccc1[nH]c3ccccc3c12
T/C [13]: 116 % of control | T/C [14]: 112 % of control | T/C [15]: 105 % of control

CC(Oc1ccccc1)C(=O)N=c1scc(-c2ccc(Br)cc2)n1-c1cccc2ccccc12 (stereo not drawn)
T/C (dose: 12.5 mg/kg/injection, schedule: Q01DX009 (ip), vehicle: gum acacia): 110 % of control | T/C (dose: 50.0 mg/kg/injection, schedule: Q01DX009 (ip), vehicle: gum acacia): 118 % of control

O=C1CC2(C(=O)N1CN(Cc1ccccc1)Cc1ccccc1)c1ccccc1-c1ccccc12
T/C [2]: 87 % of control | T/C [11]: 86 % of control | T/C [12]: 93 % of control

OCCOCCN1CCN(CC/C=C2\c3ccccc3Sc3ccc(C(F)(F)F)cc32)CC1
T/C (dose: 0.75 mg/kg/injection, schedule: Q01DX009 (ip), vehicle: saline): 95 % of control | T/C (dose: 1.5 mg/kg/injection, schedule: Q01DX009 (ip), vehicle: saline): 90 % of control | T/C (dose: 3.0 mg/kg/injection, schedule: Q01DX009 (ip), vehicle: saline): 95 % of control

CCCCNC(C)(C)C(=O)c1ccco1
T/C [13]: 86 % of control | T/C [14]: 100 % of control

O=C(Nc1cccc2c1N(C(=O)c1ccco1)CCC2)c1ccco1
T/C [13]: 91 % of control | T/C [14]: 100 % of control | T/C [15]: 104 % of control
